Key:
Settings in all cases: treatment time: 24 h
U2OS-LMNB1-TUBA1B-ACTB = assay: cell count relative to DMSO control (panel C1, DRAQ5/ER stain) (fraction of control); higher = more cells (less toxicity)
Description: (§1)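 U2OS-derived cells in 384-well plates were treated for 24 h with a 7-point 2-fold dilution series (top dose 20 µM for most compounds; final max DMSO 1%), then fixed, stained in four marker panels and imaged on a Cellomics ArrayScan. Cell count per treatment (three replicate plates merged) is given as a fraction of DMSO control. Panel A used parental U2OS, panel B U2OS-mOrange2-Peroxisome, panel C1 U2OS-LMNB1-TUBA1B-ACTB (DRAQ5 nuclei).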

U2OS-mOrange2-Peroxisome = assay: cell count relative to DMSO control (panel B, lysosome/peroxisome/lipid stain) (fraction of control); higher = more cells (less toxicity)
Description: as §1

U2OS = assay: cell count relative to DMSO control (panel A, nuclei/RNA/PMG/mitochondria stain) (fraction of control); higher = more cells (less toxicity)
Description: as §1

CCN(CC)CCCC(C)Nc1c2ccc(Cl)cc2nc2ccc(OC)cc12 (stereo unspecified) [mepacrine]
cell count
Settings	0.3125 µM	0.625 µM	1.25 µM	2.5 µM	5 µM	10 µM	20 µM
U2OS	1.02	0.981	0.98	0.921	0.925	0.85	0.616
U2OS-LMNB1-TUBA1B-ACTB	1.13	1.01	1.03	1.07	1.08	1.05	0.727
U2OS-mOrange2-Peroxisome	0.781	0.889	0.854	0.763	0.778	0.733	0.449

CCOc1ccccc1-n1c(C(C)N2CCN(C(=O)COc3ccc(Cl)cc3)CC2)nc2ccccc2c1=O (stereo unspecified) [erastin]
cell count
Settings	0.3125 µM	0.625 µM	1.25 µM	2.5 µM	5 µM	10 µM	20 µM
U2OS	1.04	1.07	1.03	1.02	1.09	0.978	0.982
U2OS-LMNB1-TUBA1B-ACTB	1.11	1.14	1.06	1	1.11	1.03	0.905
U2OS-mOrange2-Peroxisome	0.603	0.516	0.65	0.612	0.749	0.77	0.579

COc1cc(NS(C)(=O)=O)ccc1Nc1c2ccccc2nc2ccccc12 [amsacrine]
cell count
Settings	0.3125 µM	0.625 µM	1.25 µM	2.5 µM	5 µM	10 µM	20 µM
U2OS	1.04	0.838	0.405	0.402	0.322	0.359	0.329
U2OS-LMNB1-TUBA1B-ACTB	0.954	0.858	0.513	0.448	0.441	0.402	0.373
U2OS-mOrange2-Peroxisome	0.619	0.639	0.486	0.428	0.312	0.203	0.142

CC(=O)N[C@@H](CC(C)C)C(=O)N[C@@H](CC(C)C)C(=O)N[C@H](C=O)CCCN=C(N)N [leupeptin]
cell count
Settings	0.3125 µM	0.625 µM	1.25 µM	2.5 µM	5 µM	10 µM	20 µM
U2OS	1.07	1.09	0.933	1.09	1.04	1.03	1.01
U2OS-LMNB1-TUBA1B-ACTB	1.07	1.1	1.06	1.16	1.05	1.02	1.01
U2OS-mOrange2-Peroxisome	0.839	0.806	0.749	0.771	0.895	0.952	1.27

COc1ccc(C[C@H]2NC[C@H](O)[C@H]2OC(C)=O)cc1 [anisomycin]
cell count
Settings	0.3125 µM	0.625 µM	1.25 µM	2.5 µM	5 µM	10 µM	20 µM
U2OS	0.794	0.502	0.186	0.0402	0.0213	0.0357	0.053
U2OS-LMNB1-TUBA1B-ACTB	0.84	0.602	0.226	0.0722	0.0685	0.0611	0.166
U2OS-mOrange2-Peroxisome	0.678	0.277	0.0792	0.0323	0.133	0.195	0.1

COc1cc([C@@H]2c3cc4c(cc3[C@H](O)[C@H]3COC(=O)[C@@H]23)OCO4)cc(OC)c1OC [picropodophyllin]
cell count
Settings	0.15625 µM	0.3125 µM	0.625 µM	1.25 µM	2.5 µM	5 µM	10 µM
U2OS	0.97	0.88	0.899	0.978	0.94	0.929	0.701
U2OS-LMNB1-TUBA1B-ACTB	0.924	0.954	1.04	1.03	1.02	0.926	0.738
U2OS-mOrange2-Peroxisome	0.97	0.803	1.07	0.951	1.42	1.24	1.15

CC[C@]1(O)C[C@H]2CN(CCc3c([nH]c4ccccc34)[C@@](C(=O)OC)(c3cc4c(cc3OC)N(C=O)[C@H]3[C@@](O)(C(=O)OC)[C@H](OC(C)=O)[C@]5(CC)C=CCN6CC[C@]43[C@@H]65)C2)C1 [vincristine]
cell count
Settings	0.3125 µM	0.625 µM	1.25 µM	2.5 µM	5 µM	10 µM	20 µM
U2OS	0.508	0.506	0.522	0.496	0.465	0.486	0.456
U2OS-LMNB1-TUBA1B-ACTB	0.617	0.651	0.606	0.557	0.576	0.58	0.59
U2OS-mOrange2-Peroxisome	0.728	0.834	0.678	0.793	0.752	0.769	0.685

COc1cc(-n2c(=S)[nH]c3ccccc3c2=O)c(Cl)cc1Cl [mdivi-1]
cell count
Settings	0.3125 µM	0.625 µM	1.25 µM	2.5 µM	5 µM	10 µM	20 µM
U2OS	1.02	0.927	1.04	1.01	1	0.643	1.04
U2OS-LMNB1-TUBA1B-ACTB	1.02	1.01	1.08	1.03	1.02	0.74	1.09
U2OS-mOrange2-Peroxisome	0.787	0.837	0.803	1.03	1.03	0.618	0.921

CN1CCC(c2c(O)cc(O)c3c(=O)cc(-c4ccccc4Cl)oc23)[C@@H](O)C1 (stereo partly specified) [alvocidib]
cell count
Settings	0.3125 µM	0.625 µM	1.25 µM	2.5 µM	5 µM	10 µM	20 µM
U2OS	0.804	0.575	0.44	0.221	0.142	0.14	0.153
U2OS-LMNB1-TUBA1B-ACTB	0.864	0.789	0.569	0.314	0.253	0.239	0.257
U2OS-mOrange2-Peroxisome	1.61	1.52	1.18	1.24	1.29	0.687	0.372

CCCCCCCCCCCCCCCCCCOP(=O)([O-])OC1CC[N+](C)(C)CC1 [perifosine]
cell count
Settings	0.3125 µM	0.625 µM	1.25 µM	2.5 µM	5 µM	10 µM	20 µM
U2OS	0.989	1.07	1.02	0.99	0.979	0.592	0.285
U2OS-LMNB1-TUBA1B-ACTB	1.11	1.15	1.09	0.996	1.01	0.753	0.363
U2OS-mOrange2-Peroxisome	0.846	0.987	0.869	0.928	1.12	0.704	0.364

CCCCCCCC(=O)N[C@H](CN1CCCC1)[C@H](O)c1ccc2c(c1)OCCO2 [eliglustat]
cell count
Settings	0.3125 µM	0.625 µM	1.25 µM	2.5 µM	5 µM	10 µM	20 µM
U2OS	0.927	0.977	0.988	1.01	1.1	1.01	0.973
U2OS-LMNB1-TUBA1B-ACTB	1.08	1.13	1.13	1.08	1.09	1.07	1.02
U2OS-mOrange2-Peroxisome	1.25	0.795	0.804	0.767	0.889	0.945	1.12

Cc1c(Cl)cccc1Nc1ccccc1C(=O)O [tolfenamic-acid]
cell count
Settings	0.3125 µM	0.625 µM	1.25 µM	2.5 µM	5 µM	10 µM	20 µM
U2OS	0.992	1.06	1.03	1.1	1.04	1.03	0.963
U2OS-LMNB1-TUBA1B-ACTB	1.01	1.1	1.11	1.07	0.998	1.12	1.03
U2OS-mOrange2-Peroxisome	0.753	0.959	0.883	0.953	0.933	1.01	1.22

C=C1[C@@H](C)[C@H]2[C@H](Cc3ccccc3)NC(=O)[C@]23[C@H](OC(C)=O)/C=C/[C@@](C)(O)C(=O)[C@@H](C)C/C=C/[C@H]3[C@@H]1O [cytochalasin-d]
cell count
Settings	0.000781 µM	0.0015625 µM	0.003125 µM	0.00625 µM	0.0125 µM	0.025 µM	0.05 µM
U2OS	0.938	0.944	0.899	1	0.643	0.463	0.403
U2OS-LMNB1-TUBA1B-ACTB	1.08	1.04	1.04	0.821	0.499	0.374	0.356
U2OS-mOrange2-Peroxisome	0.993	1.12	1.29	1.24	0.826	0.656	0.602

CN(Cc1cnc2nc(N)nc(N)c2n1)c1ccc(C(=O)N[C@@H](CCC(=O)O)C(=O)O)cc1 [methotrexate]
cell count
Settings	0.07812 µM	0.15625 µM	0.3125 µM	0.625 µM	1.25 µM	2.5 µM	5 µM
U2OS	0.782	0.699	0.705	0.696	0.691	0.689	0.561
U2OS-LMNB1-TUBA1B-ACTB	0.922	0.8	0.838	0.851	0.728	0.663	0.497
U2OS-mOrange2-Peroxisome	0.761	0.757	0.663	0.807	0.808	0.78	0.748

O=C(/C=C\n1cnc(-c2cc(C(F)(F)F)cc(C(F)(F)F)c2)n1)NNc1cnccn1 [selinexor]
cell count
Settings	0.3125 µM	0.625 µM	1.25 µM	2.5 µM	5 µM	10 µM	20 µM
U2OS	1.01	0.994	1.03	0.971	0.9	0.779	0.502
U2OS-LMNB1-TUBA1B-ACTB	1.1	1.06	1.12	1.15	1.07	0.834	0.693
U2OS-mOrange2-Peroxisome	0.905	0.657	0.758	0.705	0.676	0.598	0.484

Cc1c(N)nc([C@H](CC(N)=O)NC[C@H](N)C(N)=O)nc1C(=O)N[C@H](C(=O)N[C@H](C)[C@@H](O)[C@H](C)C(=O)N[C@H](C(=O)NCCc1nc(-c2nc(C(=O)NCCC[S+](C)C)cs2)cs1)[C@@H](C)O)[C@@H](O[C@@H]1O[C@@H](CO)[C@@H](O)[C@H](O)[C@@H]1O[C@H]1O[C@H](CO)[C@@H](O)[C@H](OC(N)=O)[C@@H]1O)c1c[nH]cn1 [bleomycin]
cell count
Settings	0.3125 µM	0.625 µM	1.25 µM	2.5 µM	5 µM	10 µM	20 µM
U2OS	0.746	0.849	0.8	0.933	0.701	0.817	0.794
U2OS-LMNB1-TUBA1B-ACTB	0.845	0.893	0.934	1.02	0.88	0.909	0.887
U2OS-mOrange2-Peroxisome	1.36	1.16	1.31	1.26	1.32	1.25	1.34

From the supplement of paper PMC9780213
